The experiment has as its target T1, human M1 receptor (hCHRM1) (Homo sapiens, UniProt P11229).
T1 construct: expressed in transfected cells; host or cells: CHO-K1
T1 sequence (P11229 1-460): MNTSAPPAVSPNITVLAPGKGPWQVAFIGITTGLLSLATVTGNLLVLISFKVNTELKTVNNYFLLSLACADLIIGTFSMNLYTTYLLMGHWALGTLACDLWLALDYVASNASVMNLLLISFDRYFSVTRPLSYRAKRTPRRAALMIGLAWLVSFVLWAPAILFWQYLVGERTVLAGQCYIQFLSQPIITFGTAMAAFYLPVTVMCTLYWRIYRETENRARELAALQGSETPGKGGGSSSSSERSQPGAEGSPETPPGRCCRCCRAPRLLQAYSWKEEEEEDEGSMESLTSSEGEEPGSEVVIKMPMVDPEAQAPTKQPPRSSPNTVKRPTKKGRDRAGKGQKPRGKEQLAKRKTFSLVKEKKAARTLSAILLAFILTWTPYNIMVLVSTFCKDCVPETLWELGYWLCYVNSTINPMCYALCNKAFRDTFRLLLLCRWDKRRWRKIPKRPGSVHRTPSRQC
The experiment in a line: Measurement of M1 receptor positive allosteric modulator (M1PAM) activity, calcium fluorescence (FLIPRtetra) in CHO-K1 cells in the presence of acetylcholine at EC20. Format: cell-based. The settings on record: in the presence of acetylcholine at EC20 (final 0.6 nM), CHO-K1 cells expressing hCHRM1; for EC50: inflection point of M1PAM activity, read-out: IP value; for activity (%) at 10 μM: test compound 10 μM. The procedure:
Measurement of M1 Receptor Positive Allosteric Modulator (M1PAM) Activity
The activity of a test compound in the presence of acetylcholine at EC20 concentration (final concentration 0.6 nM), which affords an action corresponding to 20% of the maximum activity, was measured as PAM activity. The method is as follows. CHO-K1 cells forcibly expressing a human M1 receptor (hCHRM1) were plated on a 384-well black clear bottom plate (BD Falcon) at 5,000 cells/well, and cultured in an incubator at 37° C., 5% CO2 for 1 day. The medium in the cell plate was removed, and assay buffer A (Recording medium (DOJINDO LABORATORIES), 0.1% BSA (Wako Pure Chemical Industries, Ltd.), 2.5 μg/mL Fluo-4 AM (DOJINDO LABORATORIES), 0.08% Pluronic F127 (DOJINDO LABORATORIES), 1.25 mM probenecid (DOJINDO LABORATORIES)) containing a calcium indicator was added at 30 μL/well. The cells were left standing in the incubator at 37° C., 5% CO2 for 30 min, and further left standing at room temperature for 30 min. A test compound prepared by diluting with assay buffer B (HBSS (Invitrogen), 20 mM HEPES (Invitrogen), 0.1% BSA) containing 2.4 nM acetylcholine was added at 10 μL/well, and the fluorescence was measured by FLIPRtetra (Molecular Devices) for 1 min every 1 second. With the definition that the amount of change in the fluorescence on addition of acetylcholine (final concentration 1 μM) is 100% and that on addition of DMSO instead of a test compound is 0%, the activity (%) of the test compound and the inflection point in the concentration-dependent curve of the test compound were calculated as IP values.

With “1,5-anhydro-2-deoxy-3-O-(3-oxo-2-(4-(1H-pyrazol-1-yl)benzyl)-2,3-dihydro-1H-isoindol-4-yl)-threo-pentitol [Example 239]”, the EC50 is 6.1 nM and the “activity (%) at 10 μM” value came out at 109%.

For “1,5-anhydro-2-deoxy-4-O-(3-oxo-2-(4-(1H-pyrazol-1-yl)benzyl)-2,3-dihydro-1H-isoindol-4-yl)-threo-pentitol [Example 241]”, the EC50 is 13 nM and the “activity (%) at 10 μM” value is recorded as 101%.

For `Cn1cc(-c2ccc(CN3Cc4cccc(O[C@H]5CCCC[C@@H]5O)c4C3=O)cc2)cn1` (relative stereo) [Example 1, 7-((trans-2-hydroxycyclohexyl)oxy)-2-(4-(1-methyl-1H-pyrazol-4-yl)benzyl)isoindolin-1-one], the EC50 amounted to 7 nM and the “activity (%) at 10 μM” value worked out at 102%.

Regarding `Cn1cc(-c2ccc(CN3Cc4cccc(O[C@H]5CCC(F)(F)C[C@@H]5O)c4C3=O)cc2)cn1` (relative stereo) [Example 2, 7-((trans-4,4-difluoro-2-hydroxycyclohexyl)oxy)-2-(4-(1-methyl-1H-pyrazol-4-yl)benzyl)isoindolin-1-one], the EC50 was found to be 8.7 nM and the “activity (%) at 10 μM” value is 105%.

On to `Cn1cc(-c2ccc(CN3Cc4cccc(O[C@H]5CCCCC[C@@H]5O)c4C3=O)cc2)cn1` (relative stereo) [Example 3, 7-((trans-2-hydroxycycloheptyl)oxy)-2-(4-(1-methyl-1H-pyrazol-4-yl)benzyl)isoindolin-1-one], for which the EC50 came to 9.1 nM and the “activity (%) at 10 μM” value is reported as 104%.

For `Cn1cc(-c2ccc(CN3Cc4cccc(O[C@H]5CCC[C@@H]5O)c4C3=O)cc2)cn1` (relative stereo) [Example 4, 7-((trans-2-hydroxycyclopentyl)oxy)-2-(4-(1-methyl-1H-pyrazol-4-yl)benzyl)isoindolin-1-one], the EC50 was 13 nM and the “activity (%) at 10 μM” value was 101%.

Take `Cn1cc(-c2ccc(CN3Cc4cccc(O[C@H]5CCCC(F)(F)[C@@H]5O)c4C3=O)cc2)cn1` (relative stereo) [Example 7, 7-((trans-3,3-difluoro-2-hydroxycyclohexyl)oxy)-2-(4-(1-methyl-1H-pyrazol-4-yl)benzyl)isoindolin-1-one]: the EC50 was determined as 32 nM and the “activity (%) at 10 μM” value turned out to be 114%.

Turning to `O=C1c2c(cccc2O[C@H]2CCCC[C@@H]2O)CN1Cc1ccc(Br)cc1` (relative stereo) [Example 25, 2-(4-bromobenzyl)-7-((trans-2-hydroxycyclohexyl)oxy)isoindolin-1-one], the EC50 turned out to be 190 nM and the “activity (%) at 10 μM” value is recorded as 113%.

Take `O=C1c2c(cccc2O[C@H]2CCCC[C@@H]2O)CN1Cc1ccc(-c2cn[nH]c2)cc1` (relative stereo) [Example 26, 7-((trans-2-hydroxycyclohexyl)oxy)-2-(4-(1H-pyrazol-4-yl)benzyl)isoindolin-1-one]: the EC50 is 4.1 nM and the “activity (%) at 10 μM” value is listed as 96%.

Take `Cn1cc(-c2ccc(CN3Cc4cccc(O[C@H]5CCCC[C@@H]5O)c4C3=O)cn2)cn1` (relative stereo) [Example 27]: the EC50 worked out at 6.4 nM and the “activity (%) at 10 μM” value is 97%.

Turning to `Cn1cc(-c2ccc(CN3Cc4cccc(O[C@H]5CCCC[C@@H]5O)c4C3=O)s2)cn1` (relative stereo) [Example 28, 7-((trans-2-hydroxycyclohexyl)oxy)-2-((5-(1-methyl-1H-pyrazol-4-yl)-2-thienyl)methyl)isoindolin-1-one], the EC50 amounted to 7 nM and the “activity (%) at 10 μM” value came to 120%.

Consider `O=C1c2c(cccc2O[C@H]2CCCC[C@@H]2O)CN1Cc1ccc(-n2cccn2)cc1` (relative stereo) [Example 29, 7-((trans-2-hydroxycyclohexyl)oxy)-2-(4-(1H-pyrazol-1-yl)benzyl)isoindolin-1-one], for which the EC50 stood at 7.5 nM and the “activity (%) at 10 μM” value was 89%.

`O=C1c2c(cccc2O[C@H]2CCCC[C@@H]2O)CN1Cc1ccc(-c2ccnn2C2CCCCO2)cc1` (relative stereo) [Example 30, 7-((trans-2-hydroxycyclohexyl)oxy)-2-(4-(1-(tetrahydro-2H-pyran-2-yl)-1H-pyrazol-5-yl)benzyl)isoindolin-1-one]: the EC50 turned out to be 190 nM and the “activity (%) at 10 μM” value is recorded as 104%.

Regarding `O=C1c2c(cccc2O[C@H]2CCCC[C@@H]2O)CN1Cc1ccc(-c2ccn[nH]2)cc1` (relative stereo) [Example 31, 7-((trans-2-hydroxycyclohexyl)oxy)-2-(4-(1H-pyrazol-5-yl)benzyl)isoindolin-1-one], the EC50 came to 8.5 nM and the “activity (%) at 10 μM” value was 105%.

Consider `Cc1ccn(-c2ccc(CN3Cc4cccc(O[C@H]5CCCC[C@@H]5O)c4C3=O)cc2)n1` (relative stereo) [Example 32, 7-((trans-2-hydroxycyclohexyl)oxy)-2-(4-(3-methyl-1H-pyrazol-1-yl)benzyl)isoindolin-1-one], for which the EC50 is 10 nM and the “activity (%) at 10 μM” value worked out at 110%.

For `N#Cc1ccc(CN2Cc3cccc(O[C@H]4CCCC[C@@H]4O)c3C2=O)cc1` (relative stereo) [Example 33, 4-((7-((trans-2-hydroxycyclohexyl)oxy)-1-oxo-1,3-dihydro-2H-isoindol-2-yl)methyl)benzonitrile], the EC50 was determined as 77 nM and the “activity (%) at 10 μM” value is recorded as 98%.

Turning to `NC(=O)c1ccc(CN2Cc3cccc(O[C@H]4CCCC[C@@H]4O)c3C2=O)cc1` (relative stereo) [Example 34, 4-((7-((trans-2-hydroxycyclohexyl)oxy)-1-oxo-1,3-dihydro-2H-isoindol-2-yl)methyl)benzamide], the EC50 amounted to 10 nM and the “activity (%) at 10 μM” value is recorded as 92%.

As for `Cn1ccc(-c2ccc(CN3Cc4cccc(O[C@H]5CCCC[C@@H]5O)c4C3=O)cc2)n1` (relative stereo) [Example 35, 7-((trans-2-hydroxycyclohexyl)oxy)-2-(4-(1-methyl-1H-pyrazol-3-yl)benzyl)isoindolin-1-one], the EC50 is 14 nM and the “activity (%) at 10 μM” value is recorded as 134%.

For the molecule `Cn1cc(-c2cccc(CN3Cc4cccc(O[C@H]5CCCC[C@@H]5O)c4C3=O)c2)cn1` (relative stereo) [Example 39, 7-((trans-2-hydroxycyclohexyl)oxy)-2-(3-(1-methyl-1H-pyrazol-4-yl)benzyl)isoindolin-1-one], the EC50 was found to be 58 nM and the “activity (%) at 10 μM” value is 97%.

`Cc1ccn(-c2ccc(CN3Cc4cccc(O[C@H]5CCC[C@@H]5O)c4C3=O)cc2)n1` (relative stereo) [Example 40, 7-((trans-2-hydroxycyclopentyl)oxy)-2-(4-(3-methyl-1H-pyrazol-1-yl)benzyl)isoindolin-1-one]: the EC50 amounted to 64 nM and the “activity (%) at 10 μM” value was determined as 117%.

Consider `O=C1c2c(cccc2O[C@H]2CCCC[C@@H]2O)CN1Cc1ccc(Cl)nc1` (relative stereo) [Example 43, 2-((6-chloropyridin-3-yl)methyl)-7-((trans-2-hydroxycyclohexyl)oxy)isoindolin-1-one], for which the EC50 came out at 210 nM and the “activity (%) at 10 μM” value is on record as 99%.

(Values after patent US9777005B2 (Takeda Pharmaceutical Company Limited, priority 2012, dated 2017).)
